Measured values taken from publication PMC12102759 (Protein Science : A Publication of the Protein Society, 2025).
Like-named read-outs stand apart in the source and are kept apart here.

System: PABPC1 PABC
Format: binding, human
Details: DMS-BM library, bait PABPC1 PABC, row aa = residue at this position
[1] = prey ATXN2, peptide TLNPNAKEFNPRSFSQ, N = wild type
[2] = prey ATXN2, peptide KSTLNPNAKEFNPRSF, N = wild type
[3] = prey ATXN2, TLNPNAKEFNPRSF(averaged) over the two overlapping peptides, N = wild type
[4] = prey ATXN2, peptide TLNPNAKEFNPRSFSQ, P = wild type
[5] = prey ATXN2, peptide KSTLNPNAKEFNPRSF, S = wild type
[6] = prey ATXN2, peptide TLNPNAKEFNPRSFSQ, F = wild type
[7] = prey ATXN2, TLNPNAKEFNPRSF(averaged) over the two overlapping peptides, F = wild type
[8] = prey ATXN2, peptide KSTLNPNAKEFNPRSF, L = wild type

**Q.** For KSTLNPNAKEFNPRSF T3V (KSVLNPNAKEFNPRSF), which “DMS-derived PSSM value, position T3” value (prey ATXN2, peptide KSTLNPNAKEFNPRSF, T = wild type) is on record?
**A.** 0.2131

**Q.** “TLNPNAKEFNPRSF(averaged) S13V (TLNPNAKEFNPRVF)” was tested. Which “DMS-derived PSSM value (averaged), position S13” value (prey ATXN2, TLNPNAKEFNPRSF(averaged) over the two overlapping peptides, S = wild type) did it give?
**A.** 0.05819

**Q.** For “TLNPNAKEFNPRSFSQ N10G (TLNPNAKEFGPRSFSQ)”, which “DMS-derived PSSM value, position N10” value [1] is on record?
**A.** 0.01946

**Q.** Which “DMS-derived PSSM value, position N10” value [1] does the source give for “TLNPNAKEFNPRSFSQ N10E (TLNPNAKEFEPRSFSQ)” here?
**A.** 0.00197

**Q.** With KSTLNPNAKEFNPRSF N5D (KSTLDPNAKEFNPRSF) as the substance, how does the “DMS-derived PSSM value, position N5” value [2] read?
**A.** 0

**Q.** With “TLNPNAKEFNPRSF(averaged) N10T (TLNPNAKEFTPRSF)” as the substance, how does the “DMS-derived PSSM value (averaged), position N10” value [3] read?
**A.** 0.03227

**Q.** “TLNPNAKEFNPRSFSQ P11Q (TLNPNAKEFNQRSFSQ)” was tested. Which “DMS-derived PSSM value, position P11” value [4] did it give?
**A.** 0.01526

**Q.** With “TLNPNAKEFNPRSFSQ P11I (TLNPNAKEFNIRSFSQ)” as the substance, how does the “DMS-derived PSSM value, position P11” value [4] read?
**A.** 0.0006115

**Q.** KSTLNPNAKEFNPRSF N5S (KSTLSPNAKEFNPRSF) was tested. Which “DMS-derived PSSM value, position N5” value [2] did it give?
**A.** 0.0715

**Q.** Which “DMS-derived PSSM value, position S2” value [5] does the source give for KSTLNPNAKEFNPRSF S2F (KFTLNPNAKEFNPRSF) here?
**A.** 0.06555

**Q.** TLNPNAKEFNPRSFSQ N5M (TLNPMAKEFNPRSFSQ) was tested. Which “DMS-derived PSSM value, position N5” value [1] did it give?
**A.** 0.7094

**Q.** Which “DMS-derived PSSM value (averaged), position R12” value (prey ATXN2, TLNPNAKEFNPRSF(averaged) over the two overlapping peptides, R = wild type) does the source give for “TLNPNAKEFNPRSF(averaged) R12F (TLNPNAKEFNPFSF)” here?
**A.** 0.0319

**Q.** Which “DMS-derived PSSM value (averaged), position N5” value [3] does the source give for “TLNPNAKEFNPRSF(averaged) N5Y (TLNPYAKEFNPRSF)” here?
**A.** 0.004226

**Q.** “TLNPNAKEFNPRSFSQ F14Q (TLNPNAKEFNPRSQSQ)” was tested. Which “DMS-derived PSSM value, position F14” value [6] did it give?
**A.** 0.1174

**Q.** With “TLNPNAKEFNPRSFSQ P11T (TLNPNAKEFNTRSFSQ)” as the substance, how does the “DMS-derived PSSM value, position P11” value [4] read?
**A.** 0.2817

**Q.** For “TLNPNAKEFNPRSF(averaged) F14D (TLNPNAKEFNPRSD)”, which “DMS-derived PSSM value (averaged), position F14” value [7] is on record?
**A.** 0.01885

**Q.** How did the “DMS-derived PSSM value, position L4” value [8] turn out when KSTLNPNAKEFNPRSF L4T (KSTTNPNAKEFNPRSF) was run?
**A.** 0

**Q.** For “TLNPNAKEFNPRSF(averaged) N3H (TLHPNAKEFNPRSF)”, which “DMS-derived PSSM value (averaged), position N3” value [3] is on record?
**A.** 0

**Q.** With “TLNPNAKEFNPRSF(averaged) F9Q (TLNPNAKEQNPRSF)” as the substance, how does the “DMS-derived PSSM value (averaged), position F9” value [7] read?
**A.** 0

**Q.** KSTLNPNAKEFNPRSF L4F (KSTFNPNAKEFNPRSF) was tested. Which “DMS-derived PSSM value, position L4” value [8] did it give?
**A.** 0

**Q.** KSTLNPNAKEFNPRSF S2W (KWTLNPNAKEFNPRSF) was tested. Which “DMS-derived PSSM value, position S2” value [5] did it give?
**A.** 0.0005784

**Q.** With “TLNPNAKEFNPRSF(averaged) N10A (TLNPNAKEFAPRSF)” as the substance, how does the “DMS-derived PSSM value (averaged), position N10” value [3] read?
**A.** 0.08276

**Q.** With “KSTLNPNAKEFNPRSF N12D (KSTLNPNAKEFDPRSF)” as the substance, how does the “DMS-derived PSSM value, position N12” value [2] read?
**A.** 0.009433

**Q.** With “TLNPNAKEFNPRSF(averaged) F9Y (TLNPNAKEYNPRSF)” as the substance, how does the “DMS-derived PSSM value (averaged), position F9” value [7] read?
**A.** 0.1609

**Q.** For KSTLNPNAKEFNPRSF P6F (KSTLNFNAKEFNPRSF), which “DMS-derived PSSM value, position P6” value (prey ATXN2, peptide KSTLNPNAKEFNPRSF, P = wild type) is on record?
**A.** 0

**Q.** Which “DMS-derived PSSM value, position R14” value (prey ATXN2, peptide KSTLNPNAKEFNPRSF, R = wild type) does the source give for “KSTLNPNAKEFNPRSF R14F (KSTLNPNAKEFNPFSF)” here?
**A.** 0.03238

**Q.** TLNPNAKEFNPRSFSQ L2Y (TYNPNAKEFNPRSFSQ) was tested. Which “DMS-derived PSSM value, position L2” value (prey ATXN2, peptide TLNPNAKEFNPRSFSQ, L = wild type) did it give?
**A.** 0.1104

**Q.** How did the “DMS-derived PSSM value, position F9” value [6] turn out when TLNPNAKEFNPRSFSQ F9N (TLNPNAKENNPRSFSQ) was run?
**A.** 0

**Q.** With “KSTLNPNAKEFNPRSF E10A (KSTLNPNAKAFNPRSF)” as the substance, how does the “DMS-derived PSSM value, position E10” value (prey ATXN2, peptide KSTLNPNAKEFNPRSF, E = wild type) read?
**A.** 0.002857
